Test results published in PubChem BioAssay AID668 (University of Pittsburgh Molecular Library Screening Center, 2007).

Molecular target: M-phase inducer phosphatase 2 (Homo sapiens) (UniProt P30305)
Assay: Cdc25B catalytic domain inhibition plus catalase – biochemical, catalase present, probe assessment, dose response (AID 668)
Settings: recombinant Cdc25B catalytic domain, phosphatase activity, with catalase

Chain of M-phase inducer phosphatase 2 (Homo sapiens) (P30305 whole entry, looked up, the tested form may be a part): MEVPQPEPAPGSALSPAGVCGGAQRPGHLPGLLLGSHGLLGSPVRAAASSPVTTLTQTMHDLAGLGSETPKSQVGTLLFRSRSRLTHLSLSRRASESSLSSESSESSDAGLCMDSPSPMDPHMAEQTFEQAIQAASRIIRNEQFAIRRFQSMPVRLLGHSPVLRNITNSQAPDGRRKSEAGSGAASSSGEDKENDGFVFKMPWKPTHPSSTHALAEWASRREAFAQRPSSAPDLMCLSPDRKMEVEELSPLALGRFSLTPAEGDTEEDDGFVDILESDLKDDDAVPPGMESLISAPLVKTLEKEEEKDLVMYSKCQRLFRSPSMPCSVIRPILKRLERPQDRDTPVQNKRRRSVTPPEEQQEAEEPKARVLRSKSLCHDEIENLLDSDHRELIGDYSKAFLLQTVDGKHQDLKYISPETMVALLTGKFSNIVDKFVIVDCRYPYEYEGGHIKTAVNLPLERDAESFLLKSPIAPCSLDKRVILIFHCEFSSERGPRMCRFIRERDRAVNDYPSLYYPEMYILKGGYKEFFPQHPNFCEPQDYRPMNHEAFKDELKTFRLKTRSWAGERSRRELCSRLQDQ

Row | Structure (SMILES) | IC50 [µM]
1 | COc1cccc2c(C)c(C(=O)O)[nH]c12 | 7.11
2 | c1ccc(CSc2nnc(-c3ccco3)c(-c3ccco3)n2)cc1 | 15.7
